Assay results reported in patent publication US20150374676A1, “HELICASE-PRIMASE INHIBITORS FOR USE IN A METHOD OF TREATING ALZHEIMER'S DISEASE” (AICURIS GMBH & CO. KG, priority 2013, published 2015).
Read-outs that look alike come from different tables or passages of the source.

Experiment: Multiple-dose escalation, steady state pharmacokinetics in healthy volunteers
Format: in vivo, human
Conditions: for Ctrough: free base in plasma; for AUC / Cmax: human, plasma, oral
From the text: For three doses of the mono mesylate monohydrate salt of N-[5-(aminosulfonyl)-4-methyl-1,3-thiazol-2-yl]-N-methyl-2-[4-(2-pyridinyl)phenyl]acetamide in formulations in accordance with table a, wherein the particle size distribution is preferably defined by d(0.1) from 2 to 100 μm, d(0.5) from 30 to 210 μm and d(0.9) from 70 to 400 μm with a specific surface area of the particles less than 1.0 m^2/g, and more preferably defined by d(0.1) from 10 to 75 μm, d(0.5) from 100 to 175 μm, d(0.9) from 200 to 350 μm with a specific surface area of the particles less than 0.3 m^2/g, investigated (5, 25, and 100 mg as free base equivalent; once per day oral administration, […]), the individual concentration-time curves of the free base N-[5-(aminosulfonyl)-4-methyl-1,3-thiazol-2-yl]Nmethyl-2-[4-(2-pyridinyl)phenyl]acetamide at day 1 (after the first administration) were very similar in their general shape and slope to those profiles obtained in the single dose escalation trial (see Example a).
At steady state, there was a low inter-individual variability of minimal or “trough” concentrations with CVs (coefficient of variations) between 16.7 and 21.7% (day 21). For all doses, the individual and mean concentration-time curves of the free base of N-[5-(aminosulfonyl)-4-methyl-1,3-thiazol-2-yl]-N-methyl-2-[4-(2-pyridinyl)phenyl]acet-amide at day 21 were very similar in their shape and slope to those profiles obtained at day 1.
Table c: Steady state pharmacokinetic parameters of the free base N-[5-(aminosulfonyl)-4-methyl-1,3-thiazol-2-yl]-N-methyl-2-[4-(2-pyridinyl)phenyl]acetamide at day 21 after daily administrations of 5, 25, or 100 mg as free base equivalent of the mono mesylate monohydrate salt of N-[5-(aminosulfonyl)-4-methyl-1,3-thiazol-2-yl]-N-methyl-2-[4-(2-pyridinyl)phenyl]acetamide in formulations in accordance with table a, wherein the particle size distribution is preferably defined by d(0.1) from 2 to 100 μm, d(0.5) from 30 to 210 μm and d(0.9) from 70 to 400 μm with a specific surface area of the particles less than 1.0 m^2/g, and more preferably defined by d(0.1) from 10 to 75 μm, d(0.5) from 100 to 175 μm, d(0.9) from 200 to 350 μm with a specific surface area of the particles less than 0.3 m^2/g, to healthy volunteers (n=12 per dose).

[1] = 5 mg free base equivalent once daily, day 21 steady state, healthy volunteers n=12
[2] = 25 mg free base equivalent once daily, day 21 steady state, healthy volunteers n=12
[3] = 100 mg free base equivalent once daily, day 21 steady state, healthy volunteers n=12

Cav [1]: 213 ng/mL
t1/2z [1]: 82.6 h
Ctrough [1]: 187 ng/mL
t1/2z on average (25 mg dosage as free base equivalent, steady state after once daily single doses for 21 days): 69 ± 6 h
Cav [2]: 977 ng/mL
Cmax,ss [2]: 1358 ng/mL
t1/2z [2]: 68.6 h
AUCτ (25 mg free base equivalent once daily, day 21 steady state, healthy volunteers n=12, dosing interval 24 hours): 23430 ng·h/mL
Ctrough [2]: 832 ng/mL
Cav [3]: 4540 ng/mL
Cmax,ss [3]: 6358 ng/mL
t1/2z [3]: 59.8 h
AUCτ (100 mg free base equivalent once daily, day 21 steady state, healthy volunteers n=12, dosing interval 24 hours): 108800 ng·h/mL
Ctrough [3]: 3743 ng/mL
t1/2z on average (200 mg dosage as free base equivalent, steady state after once daily single doses for 21 days): 57.19 ± 5.451 h
dose dependence of AUC0-24h and Cmax at day 1 (5, 25, 100 mg free base equivalent, after the first administration): dose-proportional increases
dose dependence of exposure at steady state (Ctrough, AUCτ, Cmax,ss, Cav) (5, 25, 100 mg once daily): dose-proportional increase
accumulation ratio R for AUC and Cmax (all doses applied (5, 25, 100 mg once daily)): ~5
apparent total clearance (CL/F) (all doses investigated (5, 25, 100 mg once daily), steady state): 0.99 to 1.08 L/h
AUC (200 mg, 100 mg dosage as free base equivalent, steady state after once daily single doses for 21 days, read-out: AUCτ,ss): 168000 ± 38000 ng·h/mL
AUC (5 mg free base equivalent once daily, day 21 steady state, healthy volunteers n=12, dosing interval 24 hours, read-out: AUCτ): 5090 ng·h/mL
Cmax (5 mg free base equivalent once daily, day 21 steady state, healthy volunteers n=12, read-out: Cmax,ss): 301 ng/mL
Cmax (100 mg dosage as free base equivalent, steady state after once daily single doses for 21 days, read-out: mean maximum blood plasma concentration at steady state (mean Cmax,ss) of the free base): 6360 ± 1700 ng/mL
Cmax (200 mg dosage as free base equivalent, steady state after once daily single doses for 21 days, read-out: mean maximum blood plasma concentration at steady state (mean Cmax,ss) of the free base): 9990 ± 2610 ng/mL
SMILES: CS(=O)(=O)O.Cc1nc(N(C)C(=O)Cc2ccc(-c3ccccn3)cc2)sc1S(N)(=O)=O [mono mesylate monohydrate salt, N-[5-(aminosulfonyl)-4-methyl-1,3-thiazol-2-yl]-N-methyl-2-[4-(2-pyridinyl)-phenyl]acetamide mono methanesulfonic acid monohydrate]
